According to ChEMBL document CHEMBL2057076, “C-6 aryl substituted 4-quinolone-3-carboxylic acids as inhibitors of hepatitis C virus” (Bioorg Med Chem, 2012):
Calls of active or inactive are those of the source. The rule behind the calls is not given here.

Experiments:
Hepatitis C virus [1] = assay: Antiviral activity at Hepatitis C virus genotype 1b infected in human HuH7 cells assessed as inhibition of viral replication at 10 uM after 3 days by renilla luciferase reporter gene assay; assay type: functional, Hepacivirus hominis; details: Huh-7, 72 h
[2] = Cytotoxicity against human HuH7 cells assessed as cell viability at 10 uM after 3 days by CellTiter Glo assay; assay type: cell-based, Huh-7; details: read-out: Activity
Hepatitis C virus [3] = assay: Antiviral activity at Hepatitis C virus genotype 1b infected in human HuH7 cells assessed as inhibition of viral replication after 3 days by renilla luciferase reporter gene assay; assay type: functional, organism-based, Hepacivirus hominis; details: Huh-7, 72 h
[4] = Cytotoxicity against human HuH7 cells assessed as cell viability after 3 days by CellTiter Glo assay; assay type: cell-based, Huh-7
[5] = Therapeutic index, ratio of CC50 for human HuH7 cells to EC50 for Hepatitis C virus genotype 1b; assay type: cell-based, Huh-7; details: read-out: Ratio CC50/EC50
Hepatitis C virus [6] = assay: Antiviral activity at Hepatitis C virus genotype 1b infected in human HuH7 cells assessed as inhibition of viral replication at 10 uM after 3 days by quantitative RT-PCR analysis; assay type: functional, Hepacivirus hominis; details: Huh-7, 72 h
Hepacivirus hominis [7] = assay: Inhibition of Hepatitis C virus NS5B delta 55 assessed as [3H][…] incorporation on a poly(A) template at 10 uM after 3 hrs by scintillation proximity assay
Hepacivirus hominis [8] = assay: Inhibition of Hepatitis C virus NS5B delta 55 assessed as [3H][…] incorporation on a poly(A) template at 50 uM after 3 hrs by scintillation proximity assay
Hepatitis C virus [9] = assay: Antiviral activity at Hepatitis C virus genotype 1b infected in human HuH7 cells assessed as inhibition of viral replication at 0.5 uM after 3 days by renilla luciferase reporter gene assay; assay type: functional, Hepacivirus hominis; details: Huh-7, 72 h
[10] = Cytotoxicity against human HuH7 cells assessed as cell viability at 0.5 uM after 3 days by CellTiter Glo assay; assay type: cell-based, Huh-7; details: read-out: Activity
Hepatitis C virus [11] = assay: Antiviral activity at Hepatitis C virus genotype 1b infected in human HuH7 cells assessed as inhibition of viral replication at 0.5 uM after 3 days by quantitative RT-PCR analysis; assay type: functional, Hepacivirus hominis; details: Huh-7, 72 h
Hepacivirus hominis [12] = assay: Inhibition of Hepatitis C virus NS5B delta 55 assessed as [3H][…] incorporation on a poly(A) template at 1 uM after 3 hrs by scintillation proximity assay

O=C(O)c1c[nH]c2ccc(-c3ccco3)cc2c1=O
inhibition at 10 µM (Hepatitis C virus [1]): 0% | viability at 72 h, 10 µM [2]: 100%

O=C(O)c1cn(Cc2ccccc2)c2ccc(I)cc2c1=O
inhibition at 10 µM (Hepatitis C virus [1]): 0% | viability at 72 h, 10 µM [2]: 99%

O=C(O)c1cn(CCCO)c2ccc(-c3cc4ccccc4o3)cc2c1=O
inhibition at 10 µM (Hepatitis C virus [1]): 44% | viability at 72 h, 10 µM [2]: 100% | EC50 (Hepatitis C virus [3]): 23 µM | CC50 at 72 h [4]: 25 µM | selectivity ratio [5]: 1.1

O=C(O)c1cn(CCO)c2ccc(-c3cc4ccccc4o3)cc2c1=O
inhibition at 10 µM (Hepatitis C virus [1]): 63% | viability at 72 h, 10 µM [2]: 100% | EC50 (Hepatitis C virus [3]): 5.8 µM | CC50 at 72 h [4]: 34 µM | selectivity ratio [5]: 5.9 | inhibition at 10 µM (Hepatitis C virus [6]): 70% | inhibition (Hepacivirus hominis [7]): inactive | inhibition (Hepacivirus hominis [8]): inactive

O=C(O)c1cn(CCO)c2ccc(-c3ccoc3)cc2c1=O
inhibition at 10 µM (Hepatitis C virus [1]): 0% | viability at 72 h, 10 µM [2]: 100%

O=C(O)c1cn(CCO)c2cc(-c3ccco3)ccc2c1=O
inhibition at 10 µM (Hepatitis C virus [1]): 15% | viability at 72 h, 10 µM [2]: 100%

O=C(O)c1c[nH]c2ccc(-c3cccs3)cc2c1=O
inhibition at 10 µM (Hepatitis C virus [1]): 0% | viability at 72 h, 10 µM [2]: 100%

C[C@@]1(O)[C@H](O)[C@@H](CO)O[C@H]1n1cnc2c(N)ncnc21
inhibition at 0.5 µM (Hepatitis C virus [9]): 98% | viability at 72 h, 0.5 µM [10]: 87% | inhibition at 0.5 µM (Hepatitis C virus [11]): 95%

O=C(O)c1cn(CCO)c2cc(-c3cc4ccccc4o3)ccc2c1=O
inhibition at 10 µM (Hepatitis C virus [1]): 14% | viability at 72 h, 10 µM [2]: 94%

CC(=O)c1ccc(-c2ccc3c(c2)c(=O)c(C(=O)O)cn3CCO)s1
inhibition at 10 µM (Hepatitis C virus [1]): 0% | viability at 72 h, 10 µM [2]: 100%

COc1ccc(-c2ccc3c(c2)c(=O)c(C(=O)O)cn3CCO)cc1
inhibition at 10 µM (Hepatitis C virus [1]): 0% | viability at 72 h, 10 µM [2]: 95%

O=C(O)c1cn(CCO)c2ccc(I)cc2c1=O
inhibition at 10 µM (Hepatitis C virus [1]): 21% | viability at 72 h, 10 µM [2]: 100%

CCCn1cc(C(=O)O)c(=O)c2cc(-c3cc4ccccc4o3)ccc21
inhibition at 10 µM (Hepatitis C virus [1]): 4% | viability at 72 h, 10 µM [2]: 91%

O=C(O)c1cn(CCO)c2ccc(-c3ccco3)cc2c1=O
inhibition at 10 µM (Hepatitis C virus [1]): 20% | viability at 72 h, 10 µM [2]: 100%

NC(=O)c1ncn([C@@H]2O[C@H](CO)[C@@H](O)[C@H]2O)n1 [RIBAVIRIN]
inhibition at 10 µM (Hepatitis C virus [1]): 44% | viability at 72 h, 10 µM [2]: 92%

O=C(O)c1cn(CCO)c2ccc(-c3cc4ccccc4s3)cc2c1=O
inhibition at 10 µM (Hepatitis C virus [1]): 58% | viability at 72 h, 10 µM [2]: 100% | EC50 (Hepatitis C virus [3]): 5.9 µM | CC50 at 72 h [4]: 15 µM | selectivity ratio [5]: 2.5 | inhibition (Hepacivirus hominis [7]): Active | inhibition (Hepacivirus hominis [8]): Active

O=C(O)c1cn(CCCO)c2cc(-c3cccs3)ccc2c1=O
inhibition at 10 µM (Hepatitis C virus [1]): 12% | viability at 72 h, 10 µM [2]: 97%

O=C(O)c1cnc2ccc(I)cc2c1O
inhibition at 10 µM (Hepatitis C virus [1]): 22% | viability at 72 h, 10 µM [2]: 100%

O=C(O)c1cn(CCO)c2cc(-c3cccs3)ccc2c1=O
inhibition at 10 µM (Hepatitis C virus [1]): 14% | viability at 72 h, 10 µM [2]: 100%

N#Cc1cc(COc2cccc(C(=O)/C=C(\O)C(=O)O)c2)c(Cl)cc1Cl
inhibition (Hepacivirus hominis [12]): Active

O=C(O)c1cn(CCO)c2ccc(-c3cccs3)cc2c1=O
inhibition at 10 µM (Hepatitis C virus [1]): 40% | viability at 72 h, 10 µM [2]: 100% | EC50 (Hepatitis C virus [3]): 36 µM | CC50 at 72 h [4]: > 50 µM | selectivity ratio [5]: > 1.4 | inhibition (Hepacivirus hominis [7]): Active | inhibition (Hepacivirus hominis [8]): Active
